This is an account of results in article PMC5337940, “Sansanmycin natural product analogues as potent and selective anti-mycobacterials that inhibit lipid I biosynthesis” (Nature Communications, 2017).

The target in one assay is Mtb MurX (Mycobacterium tuberculosis, UniProt P9WMW7). Briefly: Radiochemical (TLC) MurX-MurG coupled inhibition assay in Mtb mc2 6230 membranes. Type of assay: biochemical. The conditions noted are these: 200 nM inhibitor, decrease in lipid II formation.
Another assay deals with HEK293 cells. Description: Cytotoxicity counter-screen, resazurin reduction microplate assay. The conditions noted are these: Homo sapiens, tested up to 200 μM, read-out: MIC50 (HEK293). Type of assay: cell-based.
A further assay concerns Mtb H37Rv. Briefly: Resazurin reduction microplate assay, growth inhibition of Mtb H37Rv. Type of assay: cell-based, Mycobacterium tuberculosis. For orientation: The colour change of resazurin is a common sign of viable cells or microbes.
The mark [1] stands for this setting: Mycobacterium tuberculosis, H37RV, average of two independent experiments, each in triplicate, read-out: MIC50 Mtb H37Rv.
Setting [2] is: average of two independent experiments, each in triplicate.
[3] abbreviates: average of two independent experiments, each in triplicate, read-out: MIC50 Mtb H37Rv.

Converted amounts (≈) assume the structure as drawn. Where two headings read alike, the source gives them in different places.

Sequence of Mtb MurX (P9WMW7 whole entry): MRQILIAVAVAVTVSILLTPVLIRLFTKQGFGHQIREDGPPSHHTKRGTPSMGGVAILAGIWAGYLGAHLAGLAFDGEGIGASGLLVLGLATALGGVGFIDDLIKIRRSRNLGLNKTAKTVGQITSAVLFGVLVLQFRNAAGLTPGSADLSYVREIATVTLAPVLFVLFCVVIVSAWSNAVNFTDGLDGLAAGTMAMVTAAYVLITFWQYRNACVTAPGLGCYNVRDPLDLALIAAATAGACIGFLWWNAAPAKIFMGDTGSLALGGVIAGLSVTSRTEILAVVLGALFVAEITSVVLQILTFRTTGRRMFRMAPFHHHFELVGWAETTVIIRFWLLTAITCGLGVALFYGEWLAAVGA

One may read the inhibition as the relative decrease from the control value, in per cent. A low value points to a response near the control. Regarding `C[C@@H]([C@H](NC(=O)[C@H](Cc1cccnc1)NC(=O)N[C@@H](Cc1c[nH]c2ccccc12)C(=O)O)C(=O)NC[C@H]1C[C@@H](O)[C@H](n2ccc(=O)[nH]c2=O)O1)N(C)C(=O)CN` [Compound 32], at 0.2 µM the inhibition on Mtb MurX was 52%. The CC50 in the assay on HEK293 cells is above 200 µM.
The term MIC50 denotes the lowest concentration that inhibits either 50% of growth or 50% of the strains tested, depending on the study. Consider `C[C@@H]([C@H](NC(=O)[C@H](Cc1c[nH]c2ccccc12)NC(=O)N[C@@H](Cc1c[nH]c2ccccc12)C(=O)O)C(=O)NC[C@H]1C[C@@H](O)[C@H](n2ccc(=O)[nH]c2=O)O1)N(C)C(=O)CN` [Compound 33], for which, in the assay with Mtb H37Rv (setting [1]), the MIC50 lay in the range of 0.44 to 0.98 µM (≈ 0.359 to 0.799 µg/mL). In the assay on Mtb H37Rv (setting [2]), the “MIC50 Mtb H37Rv” value was 0.44 ± 0.06 µM (≈ 0.359 µg/mL). This compound had an inhibition at 0.2 µM against Mtb MurX of 52%. Further, the CC50 with HEK293 cells is above 200 µM.
With `C[C@@H]([C@H](NC(=O)[C@H](CCCCN)NC(=O)N[C@@H](Cc1c[nH]c2ccccc12)C(=O)O)C(=O)NC[C@H]1C[C@@H](O)[C@H](n2ccc(=O)[nH]c2=O)O1)N(C)C(=O)CN` [Compound 28], the MIC50 in the assay on Mtb H37Rv (Mycobacterium tuberculosis, H37RV, Mtb H37Rv, read-out: MIC50 against Mtb) was 0.7 µM (≈ 0.53 µg/mL); with Mtb H37Rv (setting [1]), 0.7 ± 0.1 µM (≈ 0.53 µg/mL). Further, the inhibition at 0.2 µM against Mtb MurX turned out to be 47%. Besides, the CC50 in the assay with HEK293 cells was above 200 µM.
In the case of `C[C@@H]([C@H](NC(=O)[C@H](Cc1ccc(O)cc1)NC(=O)N[C@@H](Cc1c[nH]c2ccccc12)C(=O)O)C(=O)NC[C@H]1C[C@@H](O)[C@H](n2ccc(=O)[nH]c2=O)O1)N(C)C(=O)CN` [Compound 31], the MIC50 in the assay with Mtb H37Rv (setting [1]) fell in the range of 0.44 to 0.98 µM (≈ 0.348 to 0.776 µg/mL). For the same compound, the “MIC50 Mtb H37Rv” value in the assay on Mtb H37Rv (setting [2]) amounted to 0.52 ± 0.02 µM (≈ 0.412 µg/mL). For the same compound, testing at 0.2 µM against Mtb MurX gave an inhibition of 40%. The CC50 with HEK293 cells was above 200 µM.
For the compound `NNC(=O)c1ccncc1` [INH, isoniazid, reference compound], in the assay with Mtb H37Rv (setting [1]), the MIC50 was 0.025 ± 0.005 µM (≈ 0.00343 µg/mL).
Consider `CC(C)C[C@H](NC(=O)N[C@@H](Cc1c[nH]c2ccccc12)C(=O)O)C(=O)N[C@H](C(=O)NC[C@H]1C[C@@H](O)[C@H](n2ccc(=O)[nH]c2=O)O1)[C@H](C)N(C)C(=O)[C@@H](N)C1CCCCC1` [Compound 11], for which, in the assay with Mtb H37Rv (setting [1]), the MIC50 was 1.1 ± 0.84 µM (≈ 0.906 µg/mL). Also, in the assay with Mtb H37Rv (setting [2]), the “MIC50 Mtb H37Rv” value lay in the range of 0.95 to 1.35 µM. This compound also gave an inhibition at 0.2 µM at Mtb MurX of 14%. The CC50 with HEK293 cells was above 200 µM.
`C[C@@H]([C@H](NC(=O)[C@H](Cc1ccc(C(F)(F)F)cc1)NC(=O)N[C@@H](Cc1c[nH]c2ccccc12)C(=O)O)C(=O)NC[C@H]1C[C@@H](O)[C@H](n2ccc(=O)[nH]c2=O)O1)N(C)C(=O)CN` [Compound 30]: the MIC50 in the assay on Mtb H37Rv (setting [1]) was determined as 0.2 ± 0.06 µM (≈ 0.169 µg/mL). Moreover, at Mtb MurX, testing at 0.2 µM gave an inhibition of 100%. For the same compound, in the assay on HEK293 cells, the CC50 is above 200 µM.
In the case of `C[C@@H]([C@H](NC(=O)[C@H](CCc1ccccc1)NC(=O)N[C@@H](Cc1c[nH]c2ccccc12)C(=O)O)C(=O)NC[C@H]1C[C@@H](O)[C@H](n2ccc(=O)[nH]c2=O)O1)N(C)C(=O)CN` [Compound 35], the MIC50 with Mtb H37Rv (setting [1]) is 1.08 ± 0.1 µM (≈ 0.853 µg/mL). Besides, the CC50 with HEK293 cells is above 200 µM.
For `CC(C)C[C@H](NC(=O)N[C@@H](Cc1c[nH]c2ccccc12)C(=O)O)C(=O)N[C@H](C(=O)NC[C@H]1C[C@@H](O)[C@H](n2ccc(=O)[nH]c2=O)O1)[C@H](C)N(C)C(=O)[C@@H](N)Cc1ccc2ccccc2c1` [Compound 9], in the assay with Mtb H37Rv (setting [1]), the MIC50 worked out at 3 ± 0.7 µM (≈ 2.65 µg/mL). Further, the inhibition at 0.2 µM on Mtb MurX was 27%. Also, the CC50 in the assay on HEK293 cells was above 200 µM.
For `C[C@@H]([C@H](NC(=O)[C@H](Cc1ccccc1)NC(=O)N[C@@H](Cc1c[nH]c2ccccc12)C(=O)O)C(=O)NC[C@H]1C[C@@H](O)[C@H](n2ccc(=O)[nH]c2=O)O1)N(C)C(=O)CN` [Compound 29] the same measures were 0.26 ± 0.15 µM (≈ 0.202 µg/mL), 60% and above 200 µM.
In the case of `CC(C)[C@H](NC(=O)N[C@@H](Cc1c[nH]c2ccccc12)C(=O)O)C(=O)N[C@H](C(=O)NC[C@H]1C[C@@H](O)[C@H](n2ccc(=O)[nH]c2=O)O1)[C@H](C)N(C)C(=O)CN` [Compound 22], the MIC50 with Mtb H37Rv (setting [1]) was 0.88 ± 0.12 µM (≈ 0.64 µg/mL). The inhibition at 0.2 µM on Mtb MurX turned out to be 26%. For the same compound, in the assay on HEK293 cells, the CC50 was above 200 µM.
As to `CC[C@@H](C)[C@H](NC(=O)N[C@@H](Cc1c[nH]c2ccccc12)C(=O)O)C(=O)N[C@H](C(=O)NC[C@H]1C[C@@H](O)[C@H](n2ccc(=O)[nH]c2=O)O1)[C@H](C)N(C)C(=O)CN` [Compound 21], the MIC50 with Mtb H37Rv (setting [1]) was found to be 0.93 ± 0.11 µM (≈ 0.69 µg/mL). On Mtb MurX, this compound displayed an inhibition at 0.2 µM of 46%. Also, in the assay with HEK293 cells, the CC50 is above 200 µM.
On to `C[C@@H]([C@H](NC(=O)[C@H](CC[S+](C)[O-])NC(=O)N[C@@H](Cc1c[nH]c2ccccc12)C(=O)O)C(=O)NC[C@H]1C[C@@H](O)[C@H](n2ccc(=O)[nH]c2=O)O1)N(C)C(=O)[C@@H](N)Cc1cccc(O)c1` (some centres unmarked) [Compound 6, Dihydrosansanmycin C], for which the MIC50 in the assay on Mtb H37Rv (setting [1]) was 18.5 ± 0.7 µM (≈ 16.3 µg/mL). This compound also had an inhibition at 0.2 µM on Mtb MurX of 68%. Besides, in the assay on HEK293 cells, the CC50 is above 200 µM.
With `CC(C)C[C@H](NC(=O)N[C@@H](Cc1c[nH]c2ccccc12)C(=O)O)C(=O)N[C@H](C(=O)NC[C@H]1C[C@@H](O)[C@H](n2ccc(=O)[nH]c2=O)O1)[C@H](C)N(C)C(=O)[C@@H](N)CC(=O)O` [Compound 14], the MIC50 in the assay with Mtb H37Rv (Mycobacterium tuberculosis, H37RV, read-out: MIC50 Mtb H37Rv) was 9.8 ± 1.1 µM (≈ 7.84 µg/mL). The compound also showed an inhibition at 0.2 µM against Mtb MurX of 8%. The CC50 with HEK293 cells was above 200 µM.
For the compound `C[C@H](O)[C@H](NC(=O)N[C@@H](Cc1c[nH]c2ccccc12)C(=O)O)C(=O)N[C@H](C(=O)NC[C@H]1C[C@@H](O)[C@H](n2ccc(=O)[nH]c2=O)O1)[C@H](C)N(C)C(=O)CN` [Compound 26], in the assay on Mtb H37Rv (setting [1]), the MIC50 stood at 2.8 µM (≈ 2.04 µg/mL). In addition, the “MIC50 Mtb H37Rv” value against Mtb H37Rv (setting [2]) turned out to be 2.80 ± 0.70 µM (≈ 2.04 µg/mL). On Mtb MurX, this compound had an inhibition at 0.2 µM of 40%. The CC50 in the assay on HEK293 cells is above 200 µM.
In the case of `C[C@@H]([C@H](NC(=O)[C@@H](NC(=O)N[C@@H](Cc1c[nH]c2ccccc12)C(=O)O)c1ccccc1)C(=O)NC[C@H]1C[C@@H](O)[C@H](n2ccc(=O)[nH]c2=O)O1)N(C)C(=O)CN` [Compound 34], in the assay with Mtb H37Rv (setting [1]), the MIC50 is above 6.25 µM. In addition, at 0.2 µM the inhibition at Mtb MurX was 51%. For the same compound, in the assay on HEK293 cells, the CC50 is above 200 µM.
For `CC(C)C[C@H](NC(=O)N[C@@H](Cc1c[nH]c2ccccc12)C(=O)O)C(=O)N[C@H](C(=O)NC[C@H]1C[C@@H](O)[C@H](n2ccc(=O)[nH]c2=O)O1)[C@H](C)N(C)C(=O)CN` [Compound 12], the MIC50 in the assay on Mtb H37Rv (setting [1]) is 0.63 ± 0.17 µM (≈ 0.467 µg/mL); with Mtb H37Rv (setting [3]), 0.63 µM (≈ 0.467 µg/mL). Also, at 0.2 µM the inhibition at Mtb MurX was 9%. For the same compound, the CC50 in the assay with HEK293 cells was above 200 µM.
As to `CC(C)C[C@H](NC(=O)N[C@@H](Cc1c[nH]c2ccccc12)C(=O)O)C(=O)N[C@H](C(=O)NC[C@H]1C[C@@H](O)[C@H](n2ccc(=O)[nH]c2=O)O1)[C@H](C)N(C)C(=O)[C@H](C)N` [Compound 13], the MIC50 in the assay on Mtb H37Rv (setting [1]) is 0.6 ± 0.14 µM (≈ 0.453 µg/mL); in the assay on Mtb H37Rv (setting [3]), 0.60 µM (≈ 0.453 µg/mL). On Mtb MurX, this compound showed an inhibition at 0.2 µM of 50%. Also, the CC50 in the assay with HEK293 cells was above 200 µM.
In the case of `CC(C)C[C@H](NC(=O)N[C@@H](Cc1c[nH]c2ccccc12)C(=O)O)C(=O)N[C@H](C(=O)NC[C@H]1C[C@@H](O)[C@H](n2ccc(=O)[nH]c2=O)O1)[C@H](C)N(C)C(=O)[C@@H](N)Cc1cccc(O)c1` [Compound 5, Dihydrosansanmycin B], in the assay with Mtb H37Rv (setting [1]), the MIC50 is 0.3 ± 0.03 µM (≈ 0.254 µg/mL). For the same compound, the “MIC50 Mtb H37Rv” value against Mtb H37Rv (setting [2]) stood at 0.30 ± 0.07 µM (≈ 0.254 µg/mL). In addition, the inhibition at 0.2 µM on Mtb MurX is above 51%. Also, in the assay with HEK293 cells, the CC50 was above 200 µM.
For `CO[C@H]1/C=C/O[C@@]2(C)Oc3c(C)c(O)c4c(O)c(c(/C=N/N5CCN(C)CC5)c(O)c4c3C2=O)NC(=O)/C(C)=C\C=C\[C@H](C)[C@H](O)[C@@H](C)[C@@H](O)[C@@H](C)[C@H](OC(C)=O)[C@@H]1C` [RIF, Rifampicin, reference compound], in the assay on Mtb H37Rv (setting [1]), the MIC50 was 0.006 ± 0.002 µM (≈ 0.00494 µg/mL).
